From PMC9574886 (Bioorganic & medicinal chemistry, 2022)
Where a name gives a salt, the structure may show the parent alone.

Legend:
human nNOS = human nNOS (Homo sapiens, UniProt P29475); assay: NO-hemoglobin; format: biochemical; settings: for drop in potency with hnNOS relative to 12: compared with 12
human eNOS = human eNOS (Homo sapiens, UniProt P29474); assay: NO-hemoglobin; format: biochemical; settings: hn/he compared to lead 9
[1] = PAMPA-BBB parallel artificial membrane permeability assay; format: in vitro ADME; settings: 17 h, 200 μM, triplicate, in-house conditions
purified rat nNOS = purified rat nNOS (Rattus norvegicus, UniProt P29476); assay: NO-hemoglobin; format: biochemical; settings: for drop in potency with rnNOS relative to 12: compared with 12

Row | SMILES | drop in potency with hnNOS relative to 12 (human nNOS) | Determined Pe [1] | also measured
1 | Cc1cc(N)nc(C#CCCN(C)C)c1 [Compound 15, 6-(4-(dimethylamino)but-1-yn-1-yl)-4-methylpyridin-2-amine dihydrochloride] | 11 fold | – | –
2 | Cc1cc(N)nc(CCCN(C)C)c1 [Compound 12, 6-(3-(dimethylamino)propyl)-4-methylpyridin-2-amine dihydrochloride] | – | 2.0 10^−6 cm s^−1 | drop in heNOS selectivity as compared to lead 9 (human eNOS): 8 fold
3 | Cc1cc(N)nc(C#CCN2CCN(C)CC2)c1 [Compound 13, 4-methyl-6-(3-(4-methylpiperazin-1-yl)prop-1-yn-1-yl)pyridin-2-amine dihydrochloride] | ~73 fold | – | –
4 | Cc1cc(N)nc(C#CCN2CC(F)(F)C2)c1 [Compound 17, 6-(3-(3,3-difluoroazetidin-1-yl)prop-1-yn-1-yl)-4-methylpyridin-2-amine dihydrochloride] | ~17 fold | – | better affinity than 19 with hnNOS (human nNOS; compared with 19): 3 fold; better affinity than 19 with rnNOS (purified rat nNOS; compared with 19): 3 fold
5 | CNCC#Cc1cc(C)cc(N)n1 [Compound 10, 4-methyl-6-(3-(methylamino)prop-1-yn-1-yl)pyridin-2-amine dihydrochloride] | – | – | drop in potency with rnNOS relative to 12 (purified rat nNOS): 3 fold
6 | Cc1cc(N)nc(CCCCN(C)C)c1 [Compound 16, 6-(4-(dimethylamino)butyl)-4-methylpyridin-2-amine dihydrochloride] | ~2 fold | – | –
7 | Cc1cc(N)nc(C#CCN2CCC(F)(F)CC2)c1 [Compound 19, 6-(3-(4,4-difluoropiperidin-1-yl)prop-1-yn-1-yl)-4-methylpyridin-2-amine] | ~49 fold | 21.1 10^−6 cm s^−1 | drop in potency with rnNOS relative to 12 (purified rat nNOS): about 61 fold
8 | Cc1cc(N)nc(CCCN2CCC(F)(F)CC2)c1 [Compound 20, 6-(3-(4,4-difluoropiperidin-1-yl)propyl)-4-methylpyridin-2-amine dihydrochloride] | – | 17.3 10^−6 cm s^−1 | –
